Reference: article PMC5991599, “Anti‐tumor efficacy of a novel CLK inhibitor via targeting RNA splicing and MYC‐dependent vulnerability” (EMBO Molecular Medicine, 2018)

Experiments:
[1] = tested on: MYC-driven breast tumor allograft; test: Efficacy study in MMTV-MYC allograft model; assay type: in vivo, Balb/c nude mice; conditions: 50 mg/kg, twice daily on 2 days per week
Description: The transgenic MMTV‐MYC model was generated using the MMTV promoter as previously described (Muller et al, 1988) and was obtained from the Mouse Models of Human Cancer Consortium. The MYC‐driven breast tumor allograft model was established from a primary tumor of this model (females). Tumor cells were isolated using a cell strainer in the presence of RPMI. Viable cell count was determined, and 0.1 × 10^6 cells per mouse were subcutaneously injected in Balb/c nude animals (12‐week‐old females, Taconic Biosciences, Hudson, NY, USA) for subsequent propagation in the presence of Matrigel (BD, Franklin Lakes, NJ, USA) After two rounds of in vivo propagation, the tumor material was cryopreserved in liquid nitrogen. A small piece of the tumor was subcutaneously inoculated into Balb/c nude mice (7‐ to 8‐week‐old females), and the tumors were used for efficacy assessment.
Tumor volume=long diameter×short diameter×short diameter×(1/2)
Mice having a tumor of size approximately 200 mm^3 were used in efficacy or in vivo pharmacodynamics studies. T‐025 was dissolved in 0.5% methylcellulose solution. For the efficacy study, after randomized grouping, mice were treated with T‐025 twice daily once or twice weekly for 2 or 3 weeks. The mouse tumor volume and body weight were measured every 2–3 days.

[2] = tested on: other kinases; test: KINOMEScan-based kinase selectivity assay, kinases other than CLK/DYRK1; assay type: binding
Description: (§1) The KINOMEScan‐based kinase selectivity assay was performed at the DiscoverX Corporation (Fremont, CA, USA). The panel of growth inhibition assay and subsequent bioinformatics analysis (Fig EV1) were performed at Eurofins Inc. (St. Charles, MO, USA), using OncoPanel 240 or 60. Details of the procedures of cell proliferation assay, caspase‐3/7 activity assay, immunoblotting, and immunohistochemistry are described in Appendix Supplementary Methods.

[3] = tested on: EM2; test: Panel of growth inhibition assays (OncoPanel 240); assay type: cell-based; conditions: Homo sapiens, EM-2; 72 h; leukemia; read-out: IC50 (Oncopanel, cell count)
Description: as §1
(§2) Panel of growth inhibition assay and subsequence bioinformatics analysis (at […]
(§3) A growth inhibition assay panel and subsequent bioinformatics analysis were performed at Eurofins Inc. (MO, U.S.A.) by utilizing Oncopanel240 or 60.
(§4) According to the study reports from Eurofins Inc., cells were seeded into 384 well plates at a single cell density in standardized media. After 24 hours, the test compounds were added and the plate was incubated continuously for 72 hours. Cells were then fixed and stained to visualize nuclei. The number of nuclei was counted and normalized.
(§5) Cellular response parameters were calculated using nonlinear regression to a sigmoidal single-site dose response model and the IC50 value of each cell line was calculated.
(§6) Genomic features were binned into six distinct categories, each of which was considered to be a “biomarker-positive” grouping: Mutated (non-synonymous, coding, and non-coding mutations), Amplified, Deleted, Overexpressed, Mutated or amplified (gain-of-function), and Mutated or deleted (loss-of-function). Two orthogonal significance tests were performed on each genomic feature as follows.
(§7) Student’s t-test: For each genomic feature within each of the six above categories, IC50 cell count values for biomarker-positive and biomarker-negative groups were […]

[4] = tested on: ST486; test: Panel of growth inhibition assays (OncoPanel 240); assay type: cell-based; conditions: Homo sapiens, 72 h, lymphoma, read-out: IC50 (Oncopanel, cell count)
Description: as §1, §2, §3, §4, §5, §6, §7

[5] = tested on: MEG01; test: Panel of growth inhibition assays (OncoPanel 240); assay type: cell-based; conditions: Homo sapiens, MEG-01; 72 h; leukemia; read-out: IC50 (Oncopanel, cell count)
Description: as §1, §2, §3, §4, §5, §6, §7

[6] = tested on: CCRF-CEM; test: Panel of growth inhibition assays (OncoPanel 240); assay type: cell-based; conditions: Homo sapiens, 72 h, leukemia, read-out: IC50 (nmol/L) Cell count
Description: as §1, §2, §3, §4, §5, §6, §7

[7] = tested on: L428; test: Panel of growth inhibition assays (OncoPanel 240); assay type: cell-based; conditions: Homo sapiens, L-428; 72 h; lymphoma; read-out: IC50 (Oncopanel, cell count)
Description: as §1, §2, §3, §4, §5, §6, §7

[8] = tested on: CMLT1; test: Panel of growth inhibition assays (OncoPanel 240); assay type: cell-based; conditions: CML-T1; 72 h; leukemia; read-out: IC50 (Oncopanel, cell count)
Description: as §1, §2, §3, §4, §5, §6, §7

[9] = tested on: BV173; test: Panel of growth inhibition assays (OncoPanel 240); assay type: cell-based; conditions: Homo sapiens, BV-173; 72 h; leukemia; read-out: IC50 (Oncopanel, cell count)
Description: as §1, §2, §3, §4, §5, §6, §7

[10] = tested on: NALM6; test: Panel of growth inhibition assays (OncoPanel 240); assay type: cell-based; conditions: Homo sapiens, NALM-6; 72 h; leukemia; read-out: IC50 (Oncopanel, cell count)
Description: as §1, §2, §3, §4, §5, §6, §7

[11] = tested on: 240 cancer cell lines; test: Panel of growth inhibition assays (OncoPanel 240); assay type: cell-based; conditions: hematological and solid cancer cell lines; 72 h; read-out: IC50 values, anti-proliferative activity
Description: as §1, §2, §3, §4, §5, §6, §7

[12] = tested on: RPMI8226; test: Panel of growth inhibition assays (OncoPanel 240); assay type: cell-based; conditions: Homo sapiens, RPMI-8226; 72 h; myeloma; read-out: IC50 (Oncopanel, cell count)
Description: as §1, §2, §3, §4, §5, §6, §7

[13] = tested on: DAUDI; test: Panel of growth inhibition assays (OncoPanel 240); assay type: cell-based; conditions: Homo sapiens, 72 h, lymphoma, read-out: IC50 (Oncopanel, cell count)
Description: as §1, §2, §3, §4, §5, §6, §7

[14] = tested on: HT; test: Panel of growth inhibition assays (OncoPanel 240); assay type: cell-based; conditions: Homo sapiens, 72 h, lymphoma, read-out: IC50 (Oncopanel, cell count)
Description: as §1, §2, §3, §4, §5, §6, §7

[15] = tested on: SUM-159 xenografts; test: In vivo anti-tumor efficacy study in SUM-159 xenografts; conditions: authors' response in review process file
Excerpt: EMBO Molecular Medicine - Peer Review Process File altering the spliciosome in non transformed cells (i.e. human mammary epithelial cells or MCF10A immortalized but not transform cells)
Although alternative splicing of BCLAF1 is reported to have an additional function in colorectal cancer (Zhou et al, 2014), the reported AS variant was different from the AS variant (lacking exon […]
AS in both cancer cell lines (HCT116) and untransformed cell lines (hTERT) (Funnell et al, 2017). […]
specific to transformed cells.
BJ) had relatively low expression of CLK2 and less growth-suppressive sensitivity to T-025 (Fig […]
rendered cancer cells more sensitive to T-025. […]
short-term treatment with T-025 causes apoptosis only in cancer cells with high expression of CLK2 or with activated MYC, but not in normal tissue. Therefore, in the mouse model, intermittent […]
- Figure 4 D, E, and F: it is not specified the name of all cancer dell lines used in the study. This is […]
relevant the work. If only SKBR3 and AU565 cell lines have a high MYC CVN, and consequently are more sensitive to T-025, why did the authors use MDA-MB 468 cell line to do the experiments of Figure 2 and 3? Please clarify. In addition, confirmation in an alternative breast cancer cell line is […]

For CNc1nc(NCc2ncccn2)c2c(-c3ccc4ncccc4c3)c[nH]c2n1 [T-025, N ^2‐methyl‐N ^4‐[pyrimidin‐2‐ylmethyl]‐5‐[quinolin‐6‐yl]‐7H‐pyrrolo[2,3‐d]pyrimidine‐2,4‐diamine], the “anti-tumor efficacy, tumor growth” value [1] was “strongly suppressed growth of the allograft tumors”, the body weight loss [1] was “without inducing body weight losses” and the “selectivity for CLK/DYRK1 over other kinases” value [2] was > 300 fold. For the same compound, the Kd ([2]; no other kinase had Kd < 30, read-out: Kd of other kinases outside of CLK and DYRK1 family) was ≥ 30 nM, the IC50 [3] was 104 nM and the IC50 [4] was 57.1 nM. The IC50 [5] was 305 nM, the IC50 [6] was 45.9 nmol/L and the IC50 [7] was 116 nM. For the same compound, the IC50 [8] was 69.7 nM, the IC50 [9] was 21.8 nM and the IC50 [10] was 52.6 nM. The IC50 [11] was 30 to 300 nM, the IC50 [12] was 99.3 nM and the IC50 [13] was 52.5 nM. The IC50 [14] was 228 nM and the anti-tumor efficacy [15] was “showed significant anti-tumor properties”.
